Results from paper PMC12363935, “Unc-51 Like Kinase 3 (ULK3) is essential for autophagy and cell survival in multiple myeloma” (Research Square, 2025).
Values joined by “and” are separate entries in the source; they are usually repeats but may differ in a detail not shown here. Equal values may be shown once.

Tested on: primary CD138+ MM cells
Test: EMMA ex vivo platform, live cell imaging, 96 hours, collagen matrix with bone marrow stroma and patient plasma
Assay type: cell-based
Design: scale not given here
From the text: For clinical robustness, we tested the activity of MA9 in MM patient samples using our ex vivo mathematical myeloma advisor (EMMA) platform (Supplementary Table 1). […]
For these assays, we used a novel EMMA platform developed at Moffitt. Further details are included in the supplemental Materials. […]
400 Ex vivo drug sensitivity characterization
401 An ex vivo assay was used to quantify the chemosensitivity of primary MM cells. Fresh BM
402 aspirate cells were enriched for CD138+ expression using Miltenyi (Bergisch Gladbach, Germany)
MM cells (CD138+) were seeded in Corning
404 Cell BIND 384 well plates (Corning, NY) with collagen I and previously established human-
407 inactivated), penicillin/streptomycin, and patient-derived plasma (10%, freshly obtained from
409 added using a robotic plate handler so that every drug/combination was tested at 5 (fixed
410 concentration ratio, for combinations) concentrations (1:3 serial dilution) in two replicates.
411 Negative controls (supplemented growth media with and without the vehicle control dimethyl
412 sulfoxide [DMSO]) were included, as well as positive controls for each drug (cell line MM1.S at
413 highest drug concentration). Plates were placed in a motorized stage microscope (EVOS Auto FL,
414 Life Technologies, Carlsbad, CA) equipped with an incubator and maintained at 5% CO2 and 37
415 °C. […]
Digital image analysis computes the percent
418 viability of MM cells for each time point and experimental condition (drug and concentration)

Question: Which results are given for CC(C)C[C@H](NC(=O)[C@H](CCc1ccccc1)NC(=O)CN1CCOCC1)C(=O)N[C@@H](Cc1ccccc1)C(=O)N[C@@H](CC(C)C)C(=O)[C@@]1(C)CO1 [CFZ, carfilzomib]?
Answer: AUC (Pt620, NDMM): 36.78; AUC (Pt622, LRRMM): 32.89; AUC (Pt625, NDMM): 36.25; AUC (Pt636, ERRMM): 53.52; AUC (Pt638, NDMM): 44.52; AUC (Pt639, NDMM): 52.97; AUC (Pt648, LRMM): 48.435; AUC (Pt652, LRMM): 67.924; AUC (Pt653, LRMM): 60.160; AUC (Pt655, LRMM): 37.063 and 37.06; AUC (Pt663, LRMM): 48.477 and 48.48; AUC (Pt665, LRMM): 52.826 and 52.83; AUC (Pt666, LRMM): 40.984 and 40.98; AUC (Pt669, ERMM): 48.58; AUC (Pt672, NDMM): 56.496 and 56.5; AUC (Pt677, NDMM): 38.487 and 37.936; AUC (Pt680, ERMM): 43.762 and 43.248 and 43.76; AUC (Pt685, ERMM): 44.316 and 44.32; AUC (Pt689, NDMM): 43.578; AUC (Pt691, LRMM): 40.781 and 40.78; AUC (Pt693, SMOL): 97.333 and 97.33; AUC (Pt694, NDMM): 49.029 and 49.03; AUC (Pt695, LRMM): 54.535 and 54.53; AUC (Pt697, NDMM): 45.229 and 45.23; AUC (Pt700, NDMM): 48.455 and 54.337 and 54.34; AUC (Pt707, LRMM): 60.754 and 60.75; AUC (Pt718, SMOL): 58.31; AUC (Pt737, MGUS): 45.483; AUC (Pt738, NDMM): 52.453 and 52.45; AUC (Pt740, SMOL): 45.352; AUC (Pt745, NDMM): 68.911; AUC (Pt765, LRRMM): 59.77; AUC (Pt773, LRRMM): 32.99; AUC (Pt808, LRRMM): 47.11; AUC (Pt814, LRRMM): 62.23; AUC (Pt821, NDMM): 54.79; AUC (Pt822, ERRMM): 62.96; AUC (Pt825, NDMM): 59.86; AUC (Pt830, ERRMM): 61.41; AUC (Pt849, LRRMM): 99.06; AUC (Pt852, NDMM): 28.629; AUC (Pt853, ERMM): 62.247 and 58.956; AUC (Pt856, NDMM): 48.272 and 48.27; AUC (Pt865, LRMM): 60.759 and 60.76; AUC (Pt866, NDMM): 75.161 and 75.16; AUC (Pt875, NDMM): 41.904 and 41.9; AUC (Pt885, NDMM): 51.382 and 45.860 and 51.38; AUC (Pt888, LRMM): 51.003 and 51; AUC (Pt893, LRMM): 92.226; AUC (Pt899, SMOL): 53.140; AUC (Pt906, NDMM): 58.079 and 58.08; AUC (Pt909, LRMM): 32.841; AUC (Pt912, PCL): 23.632; AUC (Pt917, LRMM): 75.009; AUC (Pt920, LRMM): 39.820; AUC (Pt923, LRMM): 54.728 and 54.73; AUC (Pt932, LRMM): 43.433; AUC (Pt933, LRMM): 54.495 and 54.49; AUC (Pt935, NDMM): 46.326 and 46.33; AUC (Pt936, LRMM): 50.956; AUC (Pt937, NDMM): 51.703 and 49.814; AUC (Pt940, LRMM): 63.001; AUC (Pt945, LRMM): 53.027; AUC (Pt948, LRMM): 57.94; AUC (Pt951, ERMM): 62.878 and 62.88; AUC (Pt956, NDMM): 68.610 and 64.376; AUC (Pt957, LRMM): 82.913; AUC (Pt961, NDMM): 64.332 and 67.807

Question: CC(C)C[C@H](NC(=O)[C@H](Cc1ccccc1)NC(=O)c1cnccn1)B(O)O [BTZ, bortezomib] was tested. Which AUC (Pt648, LRMM) did it give?
Answer: Its AUC is 48.724.

Question: And the AUC (Pt652, LRMM)?
Answer: Its AUC is 65.980.

Question: And the AUC (Pt655, LRMM)?
Answer: Its AUC is 29.968.

Question: What about the AUC (Pt663, LRMM) of the same molecule?
Answer: Its AUC is 45.417.

Question: What about the AUC (Pt665, LRMM) of the same molecule?
Answer: Its AUC is 47.552.

Question: And the AUC (Pt666, LRMM)?
Answer: The AUC was 37.470.

Question: And the AUC (Pt669, ERMM)?
Answer: Its AUC is 37.041.

Question: And the AUC (Pt672, NDMM)?
Answer: The AUC was 45.751.

Question: What about the AUC (Pt677, NDMM) of the same molecule?
Answer: Its AUC is 30.916 and 33.959.

Question: What about the AUC (Pt680, ERMM) of the same molecule?
Answer: Its AUC is 39.728 and 39.652.

Question: What about the AUC (Pt685, ERMM) of the same molecule?
Answer: Its AUC is 34.249.

Question: And the AUC (Pt689, NDMM)?
Answer: The AUC was 40.257.

Question: What about the AUC (Pt691, LRMM) of the same molecule?
Answer: Its AUC is 38.965.

Question: What about the AUC (Pt693, SMOL) of the same molecule?
Answer: Its AUC is 87.905.

Question: What about the AUC (Pt694, NDMM) of the same molecule?
Answer: Its AUC is 31.313.

Question: What about the AUC (Pt695, LRMM) of the same molecule?
Answer: Its AUC is 46.540.

Question: What about the AUC (Pt697, NDMM) of the same molecule?
Answer: Its AUC is 44.112.

Question: And the AUC (Pt700, NDMM)?
Answer: Its AUC is 42.763 and 44.093.

Question: And the AUC (Pt707, LRMM)?
Answer: The AUC was 60.814.

Question: What about the AUC (Pt737, MGUS) of the same molecule?
Answer: Its AUC is 35.864.

Question: And the AUC (Pt738, NDMM)?
Answer: The AUC was 46.001.

Question: And the AUC (Pt740, SMOL)?
Answer: Its AUC is 32.547.

Question: And the AUC (Pt745, NDMM)?
Answer: The AUC was 47.650.

Question: What about the AUC (Pt852, NDMM) of the same molecule?
Answer: The AUC was 23.262.

Question: What about the AUC (Pt853, ERMM) of the same molecule?
Answer: Its AUC is 63.604 and 64.834.

Question: And the AUC (Pt856, NDMM)?
Answer: Its AUC is 36.749.

Question: And the AUC (Pt866, NDMM)?
Answer: The AUC was 36.635.

Question: What about the AUC (Pt875, NDMM) of the same molecule?
Answer: The AUC was 45.303.

Question: And the AUC (Pt888, LRMM)?
Answer: Its AUC is 100.000.

Question: And the AUC (Pt893, LRMM)?
Answer: Its AUC is 100.000.

Question: What about the AUC (Pt899, SMOL) of the same molecule?
Answer: Its AUC is 59.818.

Question: And the AUC (Pt906, NDMM)?
Answer: Its AUC is 59.784.

Question: And the AUC (Pt909, LRMM)?
Answer: Its AUC is 29.196.

Question: And the AUC (Pt912, PCL)?
Answer: The AUC was 26.800.

Question: What about the AUC (Pt917, LRMM) of the same molecule?
Answer: The AUC was 78.984.

Question: What about the AUC (Pt920, LRMM) of the same molecule?
Answer: Its AUC is 42.040.

Question: What about the AUC (Pt923, LRMM) of the same molecule?
Answer: The AUC was 45.019.

Question: What about the AUC (Pt932, LRMM) of the same molecule?
Answer: The AUC was 28.145.

Question: And the AUC (Pt933, LRMM)?
Answer: Its AUC is 39.573.

Question: What about the AUC (Pt935, NDMM) of the same molecule?
Answer: The AUC was 31.629.

Question: And the AUC (Pt936, LRMM)?
Answer: Its AUC is 45.292.

Question: And the AUC (Pt937, NDMM)?
Answer: The AUC was 46.111 and 46.768.

Question: And the AUC (Pt940, LRMM)?
Answer: The AUC was 43.043.

Question: And the AUC (Pt956, NDMM)?
Answer: Its AUC is 64.107 and 61.177.

Question: What about the AUC (Pt957, LRMM) of the same molecule?
Answer: Its AUC is 82.570.

Question: And the AUC (Pt961, NDMM)?
Answer: The AUC was 70.805 and 67.849.
